Among the data in patent US10065950B2, “Substituted thiazoles as HIV integrase inhibitors” (Japan Tobacco Inc., priority 2010, dated 2018) are IC50 values, retold here.

The assay concerns the target HIV-1 pNL4-3 integrase (Human immunodeficiency virus type 1 group M subtype B (isolate NY5) (HIV-1), UniProt P12497). Briefly: Determination of enzyme (HIV integrase) inhibitory activity. The assay is classed as biochemical. As to conditions: calculated from inhibition rate (fluorescence). The essentials:
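Full-length pNL4-3 integrase from E. coli (0.75 μM stock) reacted 60 min at 37° C with compound and biotinylated donor DNA bound to streptavidin plates, in MOPS buffer with 5 mM MgCl2 and 10% DMSO. Digoxigenin-labelled target DNA (25 nM stock) then added for 20 min; strand transfer read by peroxidase anti-digoxigenin fluorescence (Ex 325/Em 420 nm).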

The IC50 is the concentration that gives 50% inhibition. With `CC(C)N1C[C@@](C)(C(=O)N2CCCC2)n2cc(-c3nnc(Cc4ccc(F)cc4F)s3)c(=O)c(O)c2C1=O` [Example 172], the IC50 was 14 nM.

As for `CC(C)N1CC(CC#N)n2cc(-c3ncc(Cc4ccc(F)cc4F)s3)c(=O)c(O)c2C1=O` (stereo not shown) [Example 49], the IC50 is 5.1 nM. As to `COCC1Cn2cc(-c3nnc(Cc4ccc(F)cc4F)s3)c(=O)c(O)c2C(=O)N1CC(C)C` (stereo not shown) [Example 43], the half-inhibitory concentration (IC50) was 4.6 nM. For `COCCOC[C@H]1Cn2cc(-c3nnc(Cc4ccc(F)cc4F)s3)c(=O)c(O)c2C(=O)N1C(C)C` [Example 60], the IC50 was 17 nM. For `COCCOC[C@H]1CN(CC2CC2)C(=O)c2c(O)c(=O)c(-c3nnc(Cc4ccc(F)cc4F)s3)cn21` [Example 119] the value was 11 nM; for `CCN1C(=O)c2c(O)c(=O)c(-c3ncc(Cc4ccc(F)cc4)s3)cn2[C@@H](COC)[C@H]1C` [Example 261], 11 nM; for `C[C@]1(C(=O)N2CCC2)CN(CC2CC2)C(=O)c2c(O)c(=O)c(-c3ncc(Cc4ccc(F)cc4)s3)cn21` [Example 255], 9 nM. In the case of `COCCOC[C@H]1Cn2cc(-c3nnc(Cc4ccc(F)cc4F)s3)c(=O)c(O)c2C(=O)N1CC(C)C` [Example 55] it was 21 nM. Consider `COC[C@H]1CN(C(C)C)C(=O)c2c(O)c(=O)c(-c3nnc(Cc4ccc(F)cc4C4CC4)s3)cn21` [Example 251], for which the IC50 is 11 nM. `COC[C@@H]1Cn2cc(-c3nnc(Cc4ccc(F)cc4)s3)c(=O)c(O)c2C(=O)N1C(C)C1CC1` (stereo partly shown) [Example 198]: the IC50 was 5.7 nM. In the case of `CC(C)(C)N1C[C@](C)(C(=O)N2CCCC2)n2cc(-c3nnc(Cc4ccc(F)cc4)s3)c(=O)c(O)c2C1=O` [Example 188], the IC50 is 18 nM. For `CCNC(=O)C1(C)CN(CC)C(=O)c2c(O)c(=O)c(-c3ncc(Cc4ccc(F)cc4F)s3)cn21` (stereo not shown) [Example 162], the IC50 was 7.1 nM. With `CCOc1cc(F)ccc1Cc1nnc(-c2cn3c(c(O)c2=O)C(=O)N(C(C)C)C[C@@H]3COC)s1` [Example 219], the IC50 is 15 nM. With `C[C@H](C1CC1)N1C[C@](C)(C(=O)N(C)C)n2cc(-c3ncc(Cc4ccc(F)cc4)s3)c(=O)c(O)c2C1=O` [Example 282], the IC50 is 15 nM. With `CC(C)N1C[C@@](C)(C(=O)N(C)C)n2cc(-c3ncc(Cc4ccc(F)cc4)s3)c(=O)c(O)c2C1=O` [Example 234], the half-inhibitory concentration (IC50) is 18 nM. For the compound `CC(=O)NC[C@@H]1Cn2cc(-c3nnc(Cc4ccc(F)cc4F)s3)c(=O)c(O)c2C(=O)N1C(C)C` [Example 137], the IC50 was 8.6 nM.

As to `COCCOC[C@H]1CN(C(C)C)C(=O)c2c(O)c(=O)c(-c3nnc(Cc4ccc(F)cc4F)s3)cn21` [Example 134], the IC50 is 16 nM.

For the compound `CCNC(=O)C1(C)CN(C(C)C)C(=O)c2c(O)c(=O)c(-c3ncc(Cc4ccc(F)cc4)s3)cn21` (stereo not shown) [Example 105], the IC50 is 17 nM. In the case of `CC(C)N1C[C@](C)(C(=O)N2CCC2)n2cc(-c3ncc(Cc4ccc(F)cc4)s3)c(=O)c(O)c2C1=O` [Example 236], the IC50 is 13 nM. For `COCCOC[C@@]1(C)CN(C2CC2)C(=O)c2c(O)c(=O)c(-c3nnc(Cc4ccc(F)cc4)s3)cn21` [Example 297] the value was 20 nM. In the case of `CCCCOC[C@H]1CN(C(C)C)C(=O)c2c(O)c(=O)c(-c3nnc(Cc4ccc(F)cc4)s3)cn21` [Example 364], the 50% inhibitory concentration (IC50) was 10 nM. As for `CC(C)N1C(=O)c2c(O)c(=O)c(-c3nnc(Cc4ccc(F)cc4F)s3)cn2C[C@H]1CNC(=O)C(C)(C)C` [Example 138], the IC50 is 11 nM.

Take `CC(C)[C@H]1Cn2cc(-c3nnc(Cc4ccc(F)cc4)s3)c(=O)c(O)c2C(=O)N1C(C)C` [Example 224]: the IC50 is 7.3 nM. Take `CCN1C(=O)c2c(O)c(=O)c(-c3nnc(Cc4ccc(F)cc4)s3)cn2C[C@H]1[C@H](C)OC` [Example 332]: the IC50 is 12 nM.

Regarding `CC(C)N1C(=O)c2c(O)c(=O)c(-c3nnc(Cc4ccc(F)cc4F)s3)cn2C[C@@]1(C)C(=O)N(C)C` [Example 321], the IC50 was 7 nM. In the case of `COC[C@H]1[C@@H](C)n2cc(-c3nnc(Cc4ccc(F)cc4)s3)c(=O)c(O)c2C(=O)N1C(C)C` [Example 353], the IC50 is 13 nM. Take `CN(C)C(=O)[C@@]1(C)CN(C)C(=O)c2c(O)c(=O)c(-c3ncc(Cc4ccc(F)cc4)s3)cn21` [Example 314]: the IC50 was 7.9 nM. In the case of `CC(C)N1C[C@](C)(C(=O)N2CCCC2)n2cc(-c3nnc(Cc4ccc(F)cc4)s3)c(=O)c(O)c2C1=O` [Example 179], the IC50 was 19 nM. `COC[C@H]1CN(C(C)C)C(=O)c2c(O)c(=O)c(-c3nnc(Cc4ccc(F)c(F)c4)s3)cn21` [Example 144]: the half-inhibitory concentration (IC50) is 7.7 nM. Take `CCCOC[C@H]1CN(C(C)C)C(=O)c2c(O)c(=O)c(-c3nnc(Cc4ccc(F)cc4)s3)cn21` [Example 363]: the IC50 is 8.7 nM.

As for `CCNC(=O)[C@@]1(C)CN(C(C)C)C(=O)c2c(O)c(=O)c(-c3nnc(Cc4ccc(F)cc4F)s3)cn21` [Example 173], the IC50 is 16 nM. In the case of `O=C1c2c(O)c(=O)c(-c3nnc(Cc4ccc(F)cc4)s3)cn2CC(CO)N1C1CC1` (stereo not shown) [Example 115], the IC50 was 12 nM. `CCNC(=O)[C@@]1(C)CN(C(C)(C)C)C(=O)c2c(O)c(=O)c(-c3nnc(Cc4ccc(F)cc4)s3)cn21` [Example 189]: the IC50 is 20 nM. In the case of `COCCOC[C@H]1CN(CC2CC2)C(=O)c2c(O)c(=O)c(-c3nnc(Cc4ccc(F)cc4)s3)cn21` [Example 118] it was 13 nM; in that of `COCCOC[C@@H]1Cn2cc(-c3nnc(Cc4ccc(F)cc4F)s3)c(=O)c(O)c2C(=O)N1C(C)C` [Example 54], 7.5 nM.

For the compound `CCN(C)C(=O)[C@]1(C)CN(C)C(=O)c2c(O)c(=O)c(-c3ncc(Cc4ccc(F)cc4)s3)cn21` [Example 265], the IC50 is 9.3 nM. As to `COC[C@H]1CN(C(C)C)C(=O)c2c(O)c(=O)c(-c3nnc(Cc4ccc(Cl)cc4F)s3)cn21` [Example 229], the IC50 was 12 nM.

`CO[C@@H]1CCN(C(=O)[C@@]2(C)CN(C(C)C)C(=O)c3c(O)c(=O)c(-c4ncc(Cc5ccc(F)cc5)s4)cn32)C1` [Example 213]: the IC50 is 15 nM. For `C[C@@H](C1CC1)N1C[C@](C)(C(=O)N(C)C)n2cc(-c3ncc(Cc4ccc(F)cc4)s3)c(=O)c(O)c2C1=O` [Example 275], the IC50 was 14 nM. Consider `CCNC(=O)[C@]1(C)CN(CC)C(=O)c2c(O)c(=O)c(-c3ncc(Cc4ccc(F)cc4)s3)cn21` [Example 249], for which the IC50 is 12 nM. With `CC(C)N1C(=O)c2c(O)c(=O)c(-c3nnc(Cc4ccc(F)cc4F)s3)cn2CC1C#N` (stereo not shown) [Example 64], the IC50 was 6.1 nM. In the case of `CCNC(=O)[C@]1(C)CN(C(C)C)C(=O)c2c(O)c(=O)c(-c3nnc(Cc4ccc(F)cc4F)s3)cn21` [Example 174], the 50% inhibitory concentration (IC50) was 14 nM. Turning to `COC[C@@H]1CN(C(C)C)C(=O)c2c(O)c(=O)c(-c3nnc(Cc4ccc(F)cc4F)s3)cn21` [Example 87], the IC50 is 7.7 nM. As for `CC(C)N1CC(C)(CO)n2cc(-c3ncc(Cc4ccc(F)cc4F)s3)c(=O)c(O)c2C1=O` (stereo not shown) [Example 20], the 50% inhibitory concentration (IC50) is 17 nM. Regarding `COC[C@@H]1Cn2cc(-c3nnc(Cc4ccc(F)c(F)c4)s3)c(=O)c(O)c2C(=O)N1C(C)C` [Example 150], the concentration for half-maximal inhibition (IC50) was 6.1 nM. Turning to `COC[C@H]1CN(C(C)C)C(=O)c2c(O)c(=O)c(-c3nnc(Cc4ccc(F)cc4C)s3)cn21` [Example 231], the IC50 was 11 nM. On to `CCN1C[C@](C)(COCCOC)n2cc(-c3nnc(Cc4ccc(F)cc4)s3)c(=O)c(O)c2C1=O` [Example 296], for which the IC50 is 19 nM. In the case of `CCNC(=O)[C@]1(COCCOC)CN(C(C)C)C(=O)c2c(O)c(=O)c(-c3ncc(Cc4ccc(F)cc4)s3)cn21` [Example 394], the IC50 is 14 nM. `CCC(OC)[C@H]1CN(C(C)C)C(=O)c2c(O)c(=O)c(-c3nnc(Cc4ccc(F)cc4)s3)cn21` (stereo partly shown) [Example 383]: the IC50 is 7.9 nM. For `COC1CN(C(=O)CC2CN(C(C)C)C(=O)c3c(O)c(=O)c(-c4ncc(Cc5ccc(F)cc5F)s4)cn32)C1` (stereo not shown) [Example 272], the IC50 is 8.9 nM.

In the case of `CC[C@@H]1Cn2cc(-c3nnc(Cc4ccc(F)cc4)s3)c(=O)c(O)c2C(=O)N1CC` [Example 291], the IC50 is 8.7 nM. In the case of `COCCN(C)C(=O)[C@]1(C)CN(C(C)C)C(=O)c2c(O)c(=O)c(-c3ncc(Cc4ccc(F)cc4)s3)cn21` [Example 235] it was 16 nM; in that of `COC[C@@H]1Cn2cc(-c3nnc(Cc4ccc(F)cc4F)s3)c(=O)c(O)c2C(=O)N1C(C)C` [Example 99], 6.1 nM. In the case of `CC(C)N1C[C@](C)(C(=O)N2CC(O)C2)n2cc(-c3nnc(Cc4ccc(F)cc4)s3)c(=O)c(O)c2C1=O` [Example 208] it was 12 nM; in that of `COC1CN(C(=O)[C@@]2(C)CN(C(C)C)C(=O)c3c(O)c(=O)c(-c4nnc(Cc5ccc(F)cc5)s4)cn32)C1` [Example 209], 12 nM.

For the compound `COC[C@H]1CN(C(C)C)C(=O)c2c(O)c(=O)c(-c3nnc(Cc4c(F)cc(F)cc4OC)s3)cn21` [Example 220], the IC50 was 6.8 nM. As to `CCN1C(=O)c2c(O)c(=O)c(-c3nnc(Cc4ccc(F)cc4)s3)cn2C[C@]1(C)COCCOC` [Example 323], the IC50 is 14 nM. `COCCOC[C@H]1CN(C(C)C)C(=O)c2c(O)c(=O)c(-c3ncc(Cc4ccc(F)cc4F)s3)cn21` [Example 56]: the IC50 was 10 nM. `CNC(=O)CC1Cn2cc(-c3nnc(Cc4ccc(F)cc4F)s3)c(=O)c(O)c2C(=O)N1C(C)C` (stereo not shown) [Example 81]: the IC50 was 7.5 nM. For `CNC(=O)[C@]1(C)CN(C(C)C)C(=O)c2c(O)c(=O)c(-c3ncc(Cc4ccc(F)cc4)s3)cn21` [Example 227] the value was 13 nM; for `CCNC(=O)[C@@]1(C)CN([C@H](C)C2CC2)C(=O)c2c(O)c(=O)c(-c3ncc(Cc4ccc(F)cc4)s3)cn21` [Example 283], 18 nM.
